Experimental data reported in US20220257974A1, “PHOTOBIOMODULATION METHOD AND SYSTEM FOR INDUCING ACTIVITY OF BRAINDERIVED NERVE GROWTH FACTOR IN HIPPOCAMPAL TISSUE” (INDUSTRY ACADEMIC COOPERATION FOUNDATION KEIMYUNG UNIVERSITY, priority 2019, published 2022).

Assays:
BDNF [1] = test: RT-PCR of BDNF expression in HT-22 cell; assay type: cell-based; settings: H2O2 treatment
Excerpt: The used […] BDNF, forward [NT], and reverse [NT]; glutathione peroxidase (GPx), forward [NT], and reverse [NT]; superoxide dismutasee 1 (SOD1), forward [NT], and reverse [NT]; glutathione reductase (GR), forward [NT], and reverse [NT]; and h-GAPDH transfer [NT], reverse [NT]. All experiments were implemented three times.

p-ERK and p-CREB = test: Western blot analysis of ERK and CREB phosphorylation in HT-22 cells; assay type: cell-based; settings: H2O2 treatment
Protocol: The level of protein expression was evaluated by Western blot analysis. Cells were dissolved and centrifuged at 16,000 g. Then, the supernatant was electrophoresed at 12% SDA-PAGE and transferred to a nitrocellulose membrane. After blocking with 5% skim milk among Tween (0.05%)/PBS for 1 hour, the membrane was detected with primary antibody and a horseradish peroxidase (HRP)-conjugated antibody. The immunoreactive band was visualized using West Femto Chemi-luminescent substrate (Thermo). Protein levels were standardized with -actin expression using ChemiDOC XRS+ (Bio-Rad, Hercules, Calif., USA).

HT-22 cells = test: MTT analysis of cell survival under H2O2-induced oxidative stress; assay type: cell-based; settings: without LED light
Protocol: The protection against apoptosis was analyzed using CCK-8 kit (Dojindo, Gaithersburg, Md.) and MTT as follows: HT-22 cells (5×10^5/ml) were plated on a 96-well plate and cultured in 100 µL of DMEM medium for 24 hours. Various concentrations of H2O2 were added to the cells, and the cells were cultured for 24 hours with LED irradiation of 660 nm. Then, 10 µL of MTT solution (5 mg/ml MTT in PBS) was added to each well and cultured at 37° C. for 2 hours. Absorbance was measured at 450 nm and 564 nm with a Victor multi label counter (Wallac, Turku, Finland).
The hippocampus HT-22 cell line was used to evaluate the effect of H2O2-induced oxidative stress on cell survival and apoptosis inhibitory effect by 660 nm of LED light (FIG. 2). […] In contrast, treatment with 660 nm of LED light increased cell survival rates to 88.4, 66.2, and 22.0%, respectively.

BDNF [2] = settings: PTSD-induced mice; cited from earlier work

Row | Structure (SMILES) | BDNF expression (BDNF [1]) | p-ERK and p-CREB levels (p-ERK and p-CREB) | cell survival rate (HT-22 cells; H2O2 100M) [%] | cell survival rate (HT-22 cells; H2O2 300M) [%] | cell survival rate (HT-22 cells; H2O2 1000M) [%] | expression of BDNF and exercise ability (BDNF [2])
1 | OO [H2O2] | reduced BDNF expression | increased p-ERK and p-CREB levels | 72.7 | 57.3 | 20.7 | –
2 | CNCCC(Oc1ccc(C(F)(F)F)cc1)c1ccccc1 (stereo not drawn) [fluoxetine] | – | – | – | – | – | improved
